According to the NIST ThermoML archive (doi:10.1021/acs.jced.6b00523):
Where “and” joins values, the source holds several entries; their conditions need not be identical. Equal entries are not always repeated.

Experiments:
[1] = Closed cell (Static) method
[2] = Boiling temperature at pressure P; conditions: 100 kPa; Glass; DTA
[3] = Solid-liquid equilibrium temperature; conditions: 100 kPa, DTA
[4] = Molar enthalpy of transition or fusion; conditions: DSC

O=C(c1ccccc1)c1ccccc1 [benzophenone]
[1]
Conditions | vapor or sublimation pressure
293.08 K, Crystal | 4.2e-05 kPa
293.09 K, Crystal | 4.6e-05 kPa
293.1 K, Crystal | 4.1e-05 kPa
293.11 K, Metastable liquid | 8.1e-05 kPa and 8.4e-05 kPa and 8.5e-05 kPa
296.29 K, Crystal | 6.8e-05 kPa and 6.9e-05 kPa
296.3 K, Crystal | 6.7e-05 kPa
298.44 K, Crystal | 9.2e-05 kPa and 9.3e-05 kPa
298.45 K, Crystal | 9e-05 kPa
298.48 K, Metastable liquid | 0.000153 kPa and 0.000157 kPa and 0.000158 kPa
300.55 K, Crystal | 0.000124 kPa
300.56 K, Crystal | 0.000118 kPa and 0.000119 kPa
302.13 K, Metastable liquid | 0.000217 kPa and 0.000221 kPa
302.14 K, Metastable liquid | 0.000217 kPa
303.2 K, Crystal | 0.000168 kPa
303.22 K, Crystal | 0.000166 kPa
303.25 K, Crystal | 0.000165 kPa
306.93 K, Crystal | 0.000263 kPa and 0.000265 kPa and 0.000267 kPa
307.46 K, Metastable liquid | 0.000382 kPa
307.48 K, Metastable liquid | 0.000376 kPa and 0.00038 kPa
309.05 K, Crystal | 0.000338 kPa and 0.00034 kPa and 0.000345 kPa
311.1 K, Crystal | 0.000431 kPa and 0.000434 kPa and 0.000435 kPa
312.77 K, Metastable liquid | 0.000631 kPa
312.78 K, Metastable liquid | 0.000635 kPa and 0.000637 kPa
314.3 K, Crystal | 0.000629 kPa and 0.000632 kPa and 0.000635 kPa
317.33 K, Crystal | 0.000891 kPa
317.34 K, Crystal | 0.000892 kPa and 0.000899 kPa
318.05 K, Metastable liquid | 0.001035 kPa and 0.001036 kPa and 0.001039 kPa
319.4 K, Crystal | 0.00113 kPa
319.41 K, Crystal | 0.001128 kPa and 0.001131 kPa
320.42 K, Crystal | 0.001256 kPa and 0.001265 kPa and 0.001267 kPa
320.95 K, Crystal | 0.001353 kPa and 0.001356 kPa and 0.001362 kPa
323.33 K, Metastable liquid | 0.001658 kPa and 0.00166 kPa and 0.001661 kPa
333.79 K, Liquid | 0.003974 kPa and 0.003975 kPa and 0.003979 kPa
338.9 K, Liquid | 0.005953 kPa and 0.005954 kPa and 0.005968 kPa
344.09 K, Liquid | 0.008882 kPa and 0.00889 kPa and 0.008894 kPa
349.19 K, Liquid | 0.0129 kPa and 0.01291 kPa and 0.01293 kPa
354.35 K, Liquid | 0.01864 kPa and 0.01865 kPa and 0.01866 kPa
359.4 K, Liquid | 0.02628 kPa and 0.02629 kPa and 0.02631 kPa
364.47 K, Liquid | 0.03673 kPa
364.48 K, Liquid | 0.03672 kPa

Conditions | Boiling temperature at pressure P [°C]
[2] | -61

Conditions | Molar enthalpy of transition or fusion, [4] [kcal/mol] | Solid-liquid equilibrium temperature, [3] [K]
Crystal | 4.45 | 321.3
Metastable crystal | 3.47 | 298.3

[CH]1C=CC=C1.[CH]1C=CC=C1.[Fe] [ferrocene]
[1], Crystal
Conditions | vapor or sublimation pressure
276.97 K | 9.4e-05 kPa and 9.7e-05 kPa
276.98 K | 0.000101 kPa
282.75 K | 0.000181 kPa and 0.000189 kPa
282.76 K | 0.000194 kPa
286.28 K | 0.000288 kPa
286.29 K | 0.000285 kPa
286.31 K | 0.000283 kPa
288.24 K | 0.000335 kPa and 0.000344 kPa
292.28 K | 0.000536 kPa
292.29 K | 0.000527 kPa and 0.000529 kPa
293.76 K | 0.000622 kPa and 0.000626 kPa and 0.000627 kPa
294.28 K | 0.000652 kPa
294.29 K | 0.000646 kPa
294.34 K | 0.00065 kPa
296.77 K | 0.000841 kPa
296.78 K | 0.000848 kPa and 0.000858 kPa
299.19 K | 0.001072 kPa and 0.001073 kPa and 0.001078 kPa
302.11 K | 0.001417 kPa
302.13 K | 0.001428 kPa and 0.001429 kPa
303.24 K | 0.00162 kPa
303.25 K | 0.001618 kPa
304.61 K | 0.001809 kPa and 0.001811 kPa and 0.001815 kPa
307.47 K | 0.002395 kPa and 0.002397 kPa and 0.002384 kPa
310.03 K | 0.003047 kPa and 0.003053 kPa
310.04 K | 0.003068 kPa
312.78 K | 0.003906 kPa and 0.00391 kPa and 0.003916 kPa
314.08 K | 0.00442 kPa and 0.004424 kPa
314.09 K | 0.004449 kPa
315.43 K | 0.004969 kPa and 0.004971 kPa
318.06 K | 0.006287 kPa and 0.006293 kPa and 0.006304 kPa
320.77 K | 0.007956 kPa
323.34 K | 0.009923 kPa
323.35 K | 0.009927 kPa and 0.009932 kPa
324.89 K | 0.01134 kPa and 0.01135 kPa
326.09 K | 0.01251 kPa and 0.01252 kPa
328.59 K | 0.01539 kPa
328.6 K | 0.0154 kPa and 0.01541 kPa
331.35 K | 0.01928 kPa
331.36 K | 0.01929 kPa and 0.0193 kPa
333.86 K | 0.02352 kPa
335.51 K | 0.02691 kPa and 0.02692 kPa
336.59 K | 0.02929 kPa
336.6 K | 0.02929 kPa
339.07 K | 0.03535 kPa
339.08 K | 0.03533 kPa and 0.03537 kPa
341.81 K | 0.04367 kPa and 0.04368 kPa and 0.04369 kPa
344.2 K | 0.052 kPa
344.21 K | 0.05207 kPa and 0.0521 kPa
346.02 K | 0.0598 kPa and 0.05982 kPa and 0.05985 kPa
349.36 K | 0.07591 kPa
349.37 K | 0.07593 kPa and 0.07595 kPa
351.22 K | 0.08709 kPa and 0.08711 kPa and 0.08712 kPa
354.37 K | 0.1082 kPa
356.27 K | 0.1242 kPa
359.5 K | 0.1538 kPa
359.51 K | 0.1539 kPa
362.73 K | 0.1914 kPa and 0.1916 kPa
366.77 K | 0.2492 kPa and 0.2493 kPa and 0.2494 kPa
